Test results from publication PMC11587516 (ACS Chemical Neuroscience, 2024).
Numbering of substitutions follows the chain as printed. Read-outs that look alike come from different tables or passages of the source.

Experiments:
[1] = tested on: SH-SY5Y neuroblastoma cells; conditions: 24 h
Method: The model used mimics certain aspects of neurodegenerative diseases, where GABAergic dysfunction and neuronal death are prominent features. […] The neuroprotection studies were performed to determine the ability of compound 9 to prevent MPP^+ (1-methyl-4-phenylpyridinium) toxicity at a concentration of 1 mM, which was coincubated with compound 9 for 24 h. MPP^+ is a well-established neurotoxin that selectively damages neurons, making it a commonly used agent to model aspects of neurodegenerative conditions in vitro. It induces oxidative stress and mitochondrial dysfunction, leading to cell death. Cell viability was detected by a standard MTS assay.
Neuroprotection studies were performed according to the procedure described previously.[27] In brief, SH-SY5Y CRL-2266 (American Type Culture Collection, Manassas, VG) were seeded in microplate at a concentration of 2.5 × 10^4 cells/well in 100 μL of culture medium and cultured for 24 h at 37 °C and 5% CO2. […] Next, MPP^+ was added at a final concentration of 1 mM and the cells were placed in the incubator. After 24 h of the compound coincubation with MPP^+, the CellTiter 96 AQueous Nonradioactive Cell Proliferation Assay (MTS) was performed. The test was purchased from Promega (Madison, WI). The absorbance was measured using a microplate reader EnSpire (PerkinElmer, Waltham, MA) at 490 nm. All results were shown as mean ± SD. The statistical significances were calculated by GraphPad Prism 6.0 software.

[2] = tested on: normal human astrocytes (NHA); assay: Confocal imaging of astrocyte morphology after incubation in PBS (non-GABA conditions); format: cell-based; conditions: 500 μM GABA with 500 μM compound 9 in PBS; 72 h
Method: To this end, we tested whether blocking the transport of GABA under experimental non-GABA extracellular conditions may impair the homeostasis of these cells. […] Afterward, the cells were stained to visualize actin filaments using confocal microscopy. […] Nevertheless, further kinetic studies are necessary to verify this hypothesis.
NHA was grown on a coverslip in a 35 mm culture dish. After treatment, the cells were fixed (4% paraformaldehyde) and permeabilized (0.1% Triton X-100). Then, the samples were stained with Phalloidin-Atto 565 (Sigma-Aldrich, Inc.) according to the manufacturer’s protocol. Laser confocal microscope Nikon Eclipse Ti-E A1R-Si and Nikon NIS Elements AR software were used for cell imaging.

hBGT1 = target: T1, hBGT1 (Homo sapiens, UniProt P48065); assay: [3H]GABA uptake assay, CHO cells stably expressing hBGT1; format: cell-based; conditions: read-out: inhibition of [3H]GABA uptake; screening concentration 100 μM; CHO cells
T1 construct: expressed in transfected cells
T1 sequence (P48065 1-614): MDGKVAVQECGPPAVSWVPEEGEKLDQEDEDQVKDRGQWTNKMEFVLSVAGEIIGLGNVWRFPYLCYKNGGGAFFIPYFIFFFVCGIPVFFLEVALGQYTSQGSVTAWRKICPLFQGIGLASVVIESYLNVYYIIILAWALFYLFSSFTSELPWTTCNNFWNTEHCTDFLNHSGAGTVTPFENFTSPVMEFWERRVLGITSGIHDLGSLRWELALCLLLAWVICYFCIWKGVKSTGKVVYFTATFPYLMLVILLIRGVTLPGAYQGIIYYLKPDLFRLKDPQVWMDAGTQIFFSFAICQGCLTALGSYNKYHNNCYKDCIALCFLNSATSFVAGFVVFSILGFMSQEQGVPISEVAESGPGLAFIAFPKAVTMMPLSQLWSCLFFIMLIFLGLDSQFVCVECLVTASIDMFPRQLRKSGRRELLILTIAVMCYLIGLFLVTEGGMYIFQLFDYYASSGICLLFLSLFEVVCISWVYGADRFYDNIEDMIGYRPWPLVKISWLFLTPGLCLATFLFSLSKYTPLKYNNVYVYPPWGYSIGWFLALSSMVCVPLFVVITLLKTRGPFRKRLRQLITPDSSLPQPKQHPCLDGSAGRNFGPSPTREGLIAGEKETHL
Method: All selected compounds were tested for their ability to inhibit human BGT1 (hBGT1) function.
The CHO cells were placed in 96-well plates (approximately 50,000 cells/well) for about 24 h before the experiment. […] After incubation, cells were washed 3 times with 100 μL/well ice-cold assay buffer, 150 μL/well MicroScint20 (PerkinElmer) was subsequently added before the plate was shaken for at least 1 h. The radioactivity of each well of the plate was measured on a TopCount NXT scintillation counter. […] Data presented are the pooled data of at least three independent experiments with three technical replicates if not stated otherwise in figure legends. Concentration–response curves were fitted by nonlinear regression to the sigmoidal concentration–response model with GraphPad Prism v 9.0.

mouse models = conditions: cited from earlier work
BGT1 = conditions: cited from earlier work
hBGT1 E52A = target: T2, hBGT1 E52A (Homo sapiens, UniProt P48065, E52A); design: method as in PMID 34595152; conditions: ref 12; cited from earlier work
T2 construct: host or cells: tsA201 cells (transformed HEK293), transient expression
T2 sequence (P48065 1-614 E52A): T1 sequence (P48065 1-614) with E52A

GABAA receptor = target: GABAA receptor; design: method as in PMID 34595152; conditions: agonist; cited from earlier work
[3] = tested on: SH-SY5Y neuroblastoma cells; assay: SH-SY5Y viability, MTS assay, 72 h; format: cell-based, human; conditions: 1 µM, reference cytostatic drug
Excerpt: OC(=O)[C@H]1CNCC[C@@H]1S OC(=O)CCCCCCN1C=CN=C1
OC(=O)C1CCNCC1 N[C@]12C[C@H]1[C@@H](CC2)C(O)=O
OC(=O)C1=CCNCC1 N[C@H]1C[C@@H]1CC(O)=O
O[C@@H]1CNCC[C@H]1C(O)=O N[C@@H]1C[C@@H]1CC(O)=O
OC(=O)CCCC1=NC=CN1 N[C@H]1C[C@H]1CC(O)=O
OC(=O)\C=C\C1=NC=CN1 NC[C@H]1C[C@H]1C(O)=O
OC(=O)\C=C\C1=CNC=N1 NC[C@@H]1C[C@@H]1C(O)=O
OC(=O)\C=C\C1=CN=CN1 NC[C@@H]1C[C@H]1C(O)=O
OC(=O)CCC1=CNC=N1 NC[C@H]1C[C@@H]1C(O)=O
OC(=O)CCC1=CN=CN1 NC1=CC=C(C=N1)C(O)=O
OC(=O)CCN1C=CN=C1 NC1=NC=C(C=N1)C(O)=O
OC(=O)CCCC1=NC=CN1 NC(=N)N1CCC(CC1)C(O)=O
S2. IC50 determination at GAT3 stable GAT3-CHO, compound 9
Figure S1. IC 50 determination for compound 9. Data represent one of three independent experiments, each performed in three technical replicates.
S3. […]
The influence of compound 9 on viability of SH-SY5Y neuroblastoma cells was determined using Aqueous Non-Radioactive Cell Proliferation Assay. […] Upon adding MTS and following 2h incubation, cell viability was calculated and […]
The effect of compound 9 on viability and proliferation of SH-SY5Y was determined with CellTiter 96® Aqueous Non-Radioactive Cell Proliferation Assay (MTS, Promega, Madison, WI, USA). […] Next MTS was added in fresh medium and after 2h of incubation the absorbance was measured at 490 nm using a microplate reader EnSpire (PerkinElmer, Waltham, MA USA). All results were shown as mean ± SD calculated from two independent experiments. […]

With `C[n+]1ccc(-c2ccccc2)cc1` [MPP^+, 1-methyl-4-phenylpyridinium, reference compound] the “viability of SH-SY5Y cells” value ([1]; neurotoxin 1 mM) was “significantly reduced the viability”.

For `NCCCC(=O)O` [GABA, γ-Aminobutyric acid, reference compound], the “cell viability compared to MPP+ alone” value ([1]; GABA 10 μM, positive control, 1 mM MPP+) was “significantly increased cell viability” and the “effect on compound 9-induced morphological changes of astrocytes” value [2] was “prevented these changes”.

`O=C(O)CC1CNCCO1` (stereo not drawn) [Compound 3] gave an inhibition at 100 µM (hBGT1) of 40%.

Work on `NCc1cc(C(=O)O)[nH]n1` [Compound 11] yielded an inhibition at 100 µM (hBGT1) of 26%.

For `Cc1ccsc1C(=CCCN(C)C1CCCc2o[nH]c(=O)c21)c1sccc1C` (stereo not drawn) [EF1502], the anticonvulsant properties (mouse models; ref 13) is given as “anticonvulsant properties” and the “anticonvulsant effect when coadministered with tiagabine” value (mouse models; ref 14) is given as “synergistic effect”.

For `N[C@@]12CC[C@H](C(=O)O)[C@@H]1C2` [bicyclo-GABA, (1S,2S,5R)-5-aminobicyclo[3.1.0]hexane-2-carboxylic acid], the IC50 (BGT1; ref 11) is listed as 590 nM, the IC50 (BGT1; ref 12) is listed as 1500 nM and the “change in activity on substitution of Glu52 with alanine” value (hBGT1 E52A) is listed as “drastic increase in activity”. For the same molecule, the EC50 (GABAA receptor) was 5.1 µM.

For `COc1cccc2c1C(=O)c1c(O)c3c(c(O)c1C2=O)C[C@@](O)(C(=O)CO)C[C@@H]3O[C@H]1C[C@H](N)[C@H](O)[C@H](C)O1` [doxorubicin, reference compound], the “impact on SH-SY5Y viability” value [3] was “significantly decreased SH-SY5Y viability”.
